Measured values taken from PubChem BioAssay AID1745844 (Carcinogenic Potency Database (CPDB), 2022).
Where “and” joins values, the source holds several entries; their conditions need not be identical. Identical values can stand only once. Calls of active or inactive are those of the source. How the calls were made is not given here.

Test system: rodent lifetime carcinogenesis bioassay, tumor incidence TD50
Test: chronic cancer bioassays in animals – CPDB, compiled studies (AID 1745844)

Molecule `CCC1(c2ccccc2)C(=O)NCNC1=O` has a TD50 (mouse, strain B6C3F1, females, in feed, site: any site (literature study), lesion: several types, types named in the paper, dosed 101 weeks, study length 104 weeks) of 163 mg/kg/day, a TD50 (mouse, strain B6C3F1, females, in feed, site: liver, lesion: hepatoblastoma + hepatocellular carcinoma, dosed 101 weeks, study length 104 weeks) of 98.7 mg/kg/day and a TD50 (mouse, strain B6C3F1, females, in feed, site: liver, lesion: hepatoblastoma, dosed 101 weeks, study length 104 weeks) of 1390 mg/kg/day. The TD50 (mouse, strain B6C3F1, females, in feed, site: liver, lesion: hepatocellular adenoma + hepatoblastoma + hepatocellular carcinoma, dosed 101 weeks, study length 104 weeks) was 42.8 mg/kg/day, the TD50 (mouse, strain B6C3F1, females, in feed, site: liver, lesion: hepatocellular adenoma + hepatocellular carcinoma, dosed 101 weeks, study length 104 weeks) was 28.9 mg/kg/day and the TD50 (mouse, strain B6C3F1, females, in feed, site: liver, lesion: hepatocellular adenoma, dosed 101 weeks, study length 104 weeks) was 27.7 mg/kg/day. It also gave a TD50 (mouse, strain B6C3F1, females, in feed, site: liver, lesion: hepatocellular carcinoma, dosed 101 weeks, study length 104 weeks) of 97.3 mg/kg/day, a TD50 (mouse, strain B6C3F1, males, in feed, site: all sites, lesion: histiocytic sarcoma, dosed 101 weeks, study length 103 weeks) of 1150 mg/kg/day and a TD50 (mouse, strain B6C3F1, males, in feed, site: any site (literature study), lesion: several types, types named in the paper, dosed 101 weeks, study length 103 weeks) of 77.6 mg/kg/day. The TD50 (mouse, strain B6C3F1, males, in feed, site: liver + thyroid gland, lesion: hepatocellular adenoma + hepatoblastoma + hepatocellular carcinoma + follicular-cell adenoma, dosed 101 weeks, study length 103 weeks) was 60.2 mg/kg/day, the TD50 (mouse, strain B6C3F1, males, in feed, site: liver, lesion: hepatoblastoma + hepatocellular carcinoma, dosed 101 weeks, study length 103 weeks) was 24.7 mg/kg/day and the TD50 (mouse, strain B6C3F1, males, in feed, site: liver, lesion: hepatoblastoma, dosed 101 weeks, study length 103 weeks) was 52.5 mg/kg/day. The TD50 (mouse, strain B6C3F1, males, in feed, site: liver, lesion: hepatocellular adenoma + hepatoblastoma + hepatocellular carcinoma, dosed 101 weeks, study length 103 weeks) was 60.2 mg/kg/day, the TD50 (mouse, strain B6C3F1, males, in feed, site: liver, lesion: hepatocellular adenoma + hepatocellular carcinoma, dosed 101 weeks, study length 103 weeks) was 60.4 mg/kg/day and the TD50 (mouse, strain B6C3F1, males, in feed, site: liver, lesion: hepatocellular adenoma, dosed 101 weeks, study length 103 weeks) was 46.8 mg/kg/day. For the same molecule, the TD50 (mouse, strain B6C3F1, males, in feed, site: liver, lesion: hepatocellular carcinoma, dosed 101 weeks, study length 103 weeks) was 55 mg/kg/day, the TD50 (mouse, strain B6C3F1, males, in feed, site: lung, lesion: alveolar/bronchiolar adenoma + alveolar/bronchiolar carcinoma, dosed 101 weeks, study length 103 weeks) was 1760 mg/kg/day and the TD50 (mouse, strain B6C3F1, males, in feed, site: thyroid gland, lesion: follicular-cell adenoma, dosed 101 weeks, study length 103 weeks) was 349 mg/kg/day. The carcinogen call (rat, strain Fischer 344, females, in feed, site: any site (literature study), lesion: several types, types named in the paper, dosed 101 weeks, study length 103 weeks) was “negative (inactive)”, the TD50 (rat, strain Fischer 344, females, in feed, site: liver, lesion: hepatocellular adenoma + hepatoblastoma + hepatocellular carcinoma, dosed 101 weeks, study length 103 weeks) was 4050 mg/kg/day and the TD50 (rat, strain Fischer 344, males, in feed, site: adrenal medulla, lesion: pheochromocytoma benign, bilateral + pheochromocytoma, benign, dosed 99 weeks, study length 103 weeks) was 20.8 mg/kg/day. The TD50 (rat, strain Fischer 344, males, in feed, site: adrenal medulla, lesion: pheochromocytoma benign, bilateral + pheochromocytoma, malignant + pheochromocytoma, benign, dosed 99 weeks, study length 103 weeks) was 20.8 mg/kg/day, the TD50 (rat, strain Fischer 344, males, in feed, site: any site (literature study), lesion: several types, types named in the paper, dosed 99 weeks, study length 103 weeks) was 15.4 mg/kg/day and the TD50 (rat, strain Fischer 344, males, in feed, site: kidney, lesion: tubule adenoma + tubule carcinoma, dosed 99 weeks, study length 103 weeks) was 522 mg/kg/day and 967 mg/kg/day. The TD50 (rat, strain Fischer 344, males, in feed, site: kidney, lesion: tubule adenoma, dosed 99 weeks, study length 103 weeks) was 1280 mg/kg/day and 1290 mg/kg/day, the TD50 (rat, strain Fischer 344, males, in feed, site: liver, lesion: hepatocellular adenoma + hepatoblastoma + hepatocellular carcinoma, dosed 99 weeks, study length 103 weeks) was 138 mg/kg/day and the TD50 (rat, strain Fischer 344, males, in feed, site: testis, lesion: interstitial-cell adenoma, bilateral + interstitial-cell adenoma, dosed 99 weeks, study length 103 weeks) was 8.15 mg/kg/day. The TD50 (rat, strain Fischer 344, males, in feed, site: thyroid gland, lesion: follicular-cell adenoma + follicular-cell carcinoma, dosed 99 weeks, study length 103 weeks) was 80.2 mg/kg/day and the TD50 (rat, strain Fischer 344, males, in feed, site: thyroid gland, lesion: follicular-cell adenoma, dosed 99 weeks, study length 103 weeks) was 174 mg/kg/day.
In the case of `C=CC`, the carcinogen call (mouse, strain B6C3F1, females, inhaled, site: any site (literature study), lesion: several types, types named in the paper, dosed 103 weeks, study length 105 weeks) is reported as “negative (inactive)”, the carcinogen call (mouse, strain B6C3F1, males, inhaled, site: any site (literature study), lesion: several types, types named in the paper, dosed 103 weeks, study length 105 weeks) is reported as “negative (inactive)” and the TD50 (mouse, strain Swiss, females, inhaled, site: any site (literature study), lesion: malignant tumor, dosed 78 weeks, study length 104 weeks) is reported as 20100 mg/kg/day (inactive). For the same molecule, the TD50 (mouse, strain Swiss, females, inhaled, site: any site (literature study), lesion: several types, types named in the paper, dosed 78 weeks, study length 104 weeks) was 10100 mg/kg/day (inactive), the TD50 (mouse, strain Swiss, females, inhaled, site: liver, lesion: hepatoma, dosed 78 weeks, study length 104 weeks) was 286000 mg/kg/day (inactive) and the TD50 (mouse, strain Swiss, females, inhaled, site: lung, lesion: adenocarcinoma, dosed 78 weeks, study length 104 weeks) was 1.2e+06 mg/kg/day (inactive). For the same molecule, the TD50 (mouse, strain Swiss, females, inhaled, site: lung, lesion: adenoma, dosed 78 weeks, study length 104 weeks) was 19800 mg/kg/day (inactive), the carcinogen call (mouse, strain Swiss, males, inhaled, site: any site (literature study), lesion: malignant tumor, dosed 78 weeks, study length 104 weeks) was “negative (inactive)” and the carcinogen call (mouse, strain Swiss, males, inhaled, site: any site (literature study), lesion: several types, types named in the paper, dosed 78 weeks, study length 104 weeks) was “negative (inactive)”. The carcinogen call (mouse, strain Swiss, males, inhaled, site: liver, lesion: hepatoma, dosed 78 weeks, study length 104 weeks) was “negative (inactive)”, the carcinogen call (mouse, strain Swiss, males, inhaled, site: lung, lesion: adenocarcinoma, dosed 78 weeks, study length 104 weeks) was “negative (inactive)” and the carcinogen call (mouse, strain Swiss, males, inhaled, site: lung, lesion: adenoma, dosed 78 weeks, study length 104 weeks) was “negative (inactive)”. For the same molecule, the carcinogen call (rat, strain Fischer 344, females, inhaled, site: any site (literature study), lesion: several types, types named in the paper, dosed 103 weeks, study length 104 weeks) was “negative (inactive)”, the TD50 (rat, strain Fischer 344, females, inhaled, site: liver, lesion: hepatocellular adenoma + hepatocellular carcinoma + neoplastic nodule, dosed 103 weeks, study length 104 weeks) was 20500 mg/kg/day and the TD50 (rat, strain Fischer 344, males, inhaled, site: any site (literature study), lesion: several types, types named in the paper, dosed 103 weeks, study length 104 weeks) was 15500 mg/kg/day (inactive). For the same molecule, the TD50 (rat, strain Fischer 344, males, inhaled, site: liver, lesion: hepatocellular adenoma + hepatocellular carcinoma + neoplastic nodule, dosed 103 weeks, study length 104 weeks) was 4610 mg/kg/day.
With `CCCCCCCCCCN(C)N=O` the carcinogen call (rat, strain Fischer 344, males, by gavage, site: any site (literature study), lesion: several types, types named in the paper, dosed 30 weeks, study length 102 weeks) was “positive”, the TD50 (rat, strain Fischer 344, males, by gavage, site: forestomach, lesion: carcinoma, dosed 30 weeks, study length 102 weeks) was 46.6 mg/kg/day and the TD50 (rat, strain Fischer 344, males, by gavage, site: forestomach, lesion: papilloma, dosed 30 weeks, study length 102 weeks) was 46.6 mg/kg/day. It also gave a TD50 (rat, strain Fischer 344, males, by gavage, site: liver, lesion: hepatocellular carcinoma, dosed 30 weeks, study length 102 weeks) of 22.7 mg/kg/day, a TD50 (rat, strain Fischer 344, males, by gavage, site: lung, lesion: adenocarcinoma, dosed 30 weeks, study length 102 weeks) of 8.32 mg/kg/day and a TD50 (rat, strain Fischer 344, males, by gavage, site: lung, lesion: adenoma, dosed 30 weeks, study length 102 weeks) of 14.7 mg/kg/day. The TD50 (rat, strain Fischer 344, males, by gavage, site: nasal cavity, lesion: several types, types named in the paper, dosed 30 weeks, study length 102 weeks) was 46.6 mg/kg/day and the TD50 (rat, strain Fischer 344, males, by gavage, site: urinary bladder, lesion: transitional-cell carcinoma, dosed 30 weeks, study length 102 weeks) was 1.26 mg/kg/day.
Molecule `CC=O` has a TD50 (hamster, strain Syrian Golden, females, inhaled, site: larynx, lesion: adenosquamous carcinoma, dosed 52 weeks, study length 81 weeks) of 1140 mg/kg/day, a TD50 (hamster, strain Syrian Golden, females, inhaled, site: larynx, lesion: several types, types named in the paper, dosed 52 weeks, study length 81 weeks) of 728 mg/kg/day and a TD50 (hamster, strain Syrian Golden, females, inhaled, site: larynx, lesion: squamous-cell carcinoma, dosed 52 weeks, study length 81 weeks) of 2360 mg/kg/day. For the same molecule, the TD50 (hamster, strain Syrian Golden, males, inhaled, site: larynx, lesion: carcinoma, in situ, dosed 52 weeks, study length 81 weeks) was 641 mg/kg/day, the TD50 (hamster, strain Syrian Golden, males, inhaled, site: larynx, lesion: several types, types named in the paper, dosed 52 weeks, study length 81 weeks) was 461 mg/kg/day and the TD50 (hamster, strain Syrian Golden, males, inhaled, site: larynx, lesion: squamous-cell carcinoma, dosed 52 weeks, study length 81 weeks) was 2070 mg/kg/day. The TD50 (hamster, strain Syrian Golden, males, inhaled, site: nose, lesion: anaplastic carcinoma, dosed 52 weeks, study length 81 weeks) was 2070 mg/kg/day, the TD50 (hamster, strain Syrian Golden, males, inhaled, site: respiratory system, lesion: several types, types named in the paper, dosed 52 weeks, study length 81 weeks) was 461 mg/kg/day and the TD50 (rat, strain Wistar-random, females, inhaled, site: nasal mucosa, lesion: adenocarcinoma, dosed 50 weeks, study length 105 weeks) was 201 mg/kg/day. It also gave a TD50 (rat, strain Wistar-random, females, inhaled, site: nasal mucosa, lesion: several types, types named in the paper, dosed 50 weeks, study length 105 weeks) of 148 mg/kg/day, a TD50 (rat, strain Wistar-random, females, inhaled, site: nasal mucosa, lesion: squamous-cell carcinoma, dosed 50 weeks, study length 105 weeks) of 574 mg/kg/day and a TD50 (rat, strain Wistar-random, males, inhaled, site: nasal mucosa, lesion: adenocarcinoma, dosed 50 weeks, study length 105 weeks) of 190 mg/kg/day. The TD50 (rat, strain Wistar-random, males, inhaled, site: nasal mucosa, lesion: several types, types named in the paper, dosed 50 weeks, study length 105 weeks) was 88.5 mg/kg/day, the TD50 (rat, strain Wistar-random, males, inhaled, site: nasal mucosa, lesion: squamous-cell carcinoma, dosed 50 weeks, study length 105 weeks) was 200 mg/kg/day and the TD50 (rat, strain Wistar, females, inhaled, site: nose, lesion: adenocarcinoma, dosed 111 weeks, study length 121 weeks) was 370 mg/kg/day. It also gave a TD50 (rat, strain Wistar, females, inhaled, site: nose, lesion: carcinoma, in situ, dosed 111 weeks, study length 121 weeks) of 3000 mg/kg/day, a TD50 (rat, strain Wistar, females, inhaled, site: nose, lesion: squamous-cell carcinoma, dosed 111 weeks, study length 121 weeks) of 1030 mg/kg/day and a TD50 (rat, strain Wistar, males, inhaled, site: nose, lesion: adenocarcinoma, dosed 111 weeks, study length 121 weeks) of 185 mg/kg/day. The TD50 (rat, strain Wistar, males, inhaled, site: nose, lesion: squamous-cell carcinoma, dosed 111 weeks, study length 121 weeks) was 627 mg/kg/day.
For `O=C(O)c1ccc(N=Nc2ccc(O)c(C(=O)O)c2)cc1`, the TD50 (mouse, strain NMRI, females, in feed, site: all sites, lesion: lymphoma, dosed 107 weeks, study length 107 weeks) was 1200 mg/kg/day (inactive), the carcinogen call (mouse, strain NMRI, females, in feed, site: liver, lesion: hepatocellular adenoma, dosed 107 weeks, study length 107 weeks) was “negative (inactive)” and the carcinogen call (mouse, strain NMRI, females, in feed, site: lung, lesion: alveolar/bronchiolar adenocarcinoma, dosed 107 weeks, study length 107 weeks) was “negative (inactive)”. For the same molecule, the TD50 (mouse, strain NMRI, females, in feed, site: lung, lesion: alveolar/bronchiolar adenoma, dosed 107 weeks, study length 107 weeks) was 2650 mg/kg/day (inactive), the TD50 (mouse, strain NMRI, males, in feed, site: liver, lesion: hepatocellular adenoma, dosed 120 weeks, study length 120 weeks) was 35200 mg/kg/day (inactive) and the TD50 (mouse, strain NMRI, males, in feed, site: liver, lesion: hepatocellular carcinoma, dosed 120 weeks, study length 120 weeks) was 19500 mg/kg/day (inactive). The TD50 (mouse, strain NMRI, males, in feed, site: lung, lesion: alveolar/bronchiolar adenocarcinoma, dosed 120 weeks, study length 120 weeks) was 14300 mg/kg/day (inactive), the TD50 (mouse, strain NMRI, males, in feed, site: lung, lesion: alveolar/bronchiolar adenoma, dosed 120 weeks, study length 120 weeks) was 13000 mg/kg/day (inactive) and the carcinogen call (rat, strain Sprague-Dawley, females, in feed, site: liver, lesion: hepatocellular tumor, dosed 119 weeks, study length 119 weeks) was “negative (inactive)”. For the same molecule, the carcinogen call (rat, strain Sprague-Dawley, males, in feed, site: liver, lesion: hepatocellular adenoma, dosed 118 weeks, study length 118 weeks) was “negative (inactive)”, the carcinogen call (rat, strain Sprague-Dawley, males, in feed, site: liver, lesion: hepatocellular carcinoma, dosed 118 weeks, study length 118 weeks) was “negative (inactive)” and the TD50 (rat, strain Sprague-Dawley, males, in feed, site: thyroid gland, lesion: follicular-cell adenoma, dosed 118 weeks, study length 118 weeks) was 15300 mg/kg/day.
